{"source": "patent US20090123545A1", "about": "“Rapid Onset and Short Term Modafinil Compositions and Methods of Use Thereof” (priority 2005, published 2009)", "key": {"[1]": {"system": "normal human volunteer", "assay": "Double blind study of sub-lingual d-modafinil composition in a normal human volunteer", "assay_type": "in vivo", "procedure": "The test subject was given three vials: one vial containing the base formulation (as in Example 1) to test the taste and delivery means, and two coded vials. One of the coded vials contained 100 mg of d-modafinil formulation, and the second coded vial contained placebo (an equivalent amount of formulation).\nThe subject was instructed to place the contents of the test formulation under the tongue, to allow the formulation to dissolve over two minutes, and to rinse any residual material with some water."}, "[2]": {"system": "extracellular dopamine", "details": "in vivo; cited from earlier work"}, "[3]": {"biological_target": "dopamine reuptake pump (Homo sapiens, UniProt Q01959)", "sequence (Q01959 whole entry)": "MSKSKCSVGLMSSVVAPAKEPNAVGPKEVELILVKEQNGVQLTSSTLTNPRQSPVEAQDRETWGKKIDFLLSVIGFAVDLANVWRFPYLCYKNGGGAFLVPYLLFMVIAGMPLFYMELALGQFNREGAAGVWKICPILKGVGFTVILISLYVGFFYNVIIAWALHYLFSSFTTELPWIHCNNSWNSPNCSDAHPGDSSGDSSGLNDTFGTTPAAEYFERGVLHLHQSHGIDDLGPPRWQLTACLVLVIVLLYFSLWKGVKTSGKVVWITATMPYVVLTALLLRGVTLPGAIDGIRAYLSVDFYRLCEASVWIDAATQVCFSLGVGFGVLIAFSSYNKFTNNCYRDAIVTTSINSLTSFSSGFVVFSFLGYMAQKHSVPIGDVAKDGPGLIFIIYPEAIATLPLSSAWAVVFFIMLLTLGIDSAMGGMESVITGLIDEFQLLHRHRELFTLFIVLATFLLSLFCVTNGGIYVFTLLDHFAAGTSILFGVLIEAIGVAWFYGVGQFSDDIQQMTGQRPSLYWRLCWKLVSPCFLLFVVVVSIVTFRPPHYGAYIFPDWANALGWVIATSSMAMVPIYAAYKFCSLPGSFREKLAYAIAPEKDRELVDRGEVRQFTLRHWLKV", "details": "in vitro studies; cited from earlier work"}, "[4]": {"details": "cited from earlier work"}, "[5]": {"system": "mice", "details": "cited from earlier work"}, "[6]": {"system": "normal human volunteers", "assay": "Double blind crossover study of sub-lingual d-modafinil in normal human volunteers (VAS, difficulty to fall asleep)", "assay_type": "in vivo", "design": "key to Visual Analog Scale (0 to 3), difficulty to fall asleep: 0: fell asleep as usual; 1: slight, noticeable change; 2: noticeable change; 3: extreme change (kept awake most of night)", "details": "200 mg sublingual, one hour before bedtime", "procedure": "Two subjects received a set of coded vials containing either 200 mg of d-modafinil formulated according to Example 1 or an equivalent placebo formulation.\nThe subjects were given the following instructions:\nStart testing at approximately the same time every evening, one hour before bedtime.\nRandomly select one of the coded vials each day.\nOpen the vials and place the powder under your tongue.\nAllow the powder to dissolve slowly for approximately 1-2 minutes.\nAfter the powder is fully dissolved, you may drink some water.\nRecord observations in a Visual Analogue Scale (VAS) describing the difficulty to fall asleep."}}, "note": "“And” between values parts separate entries of the source, which are not always exact repeats. Identical values can stand only once. “Also recorded” adds a separate entry of the source. Like-named read-outs stand apart in the source and are kept apart here.", "data": [{"smiles": "NC(=O)C[S+]([O-])C(c1ccccc1)c1ccccc1", "note": "(racemic) [racemic modafinil, 2-[(diphenylmethyl)sulfinyl]acetamide]", "values": [{"measurement": "effect on wakefulness (subject's report)", "setting": "[1]; 200 mg Provigil at 10 p.m., same subject about one week before, not blinded", "result": "very pronounced effect"}, {"measurement": "effect on extracellular dopamine", "setting": "[2]", "result": "increases extracellular dopamine"}, {"measurement": "effect on reuptake of dopamine", "setting": "[3]", "result": "inhibit the reuptake of dopamine"}, {"measurement": "time to reach maximum plasma concentrations", "setting": "[4]; after a single oral dose", "result": "2 to 4", "unit": "h"}, {"measurement": "half-life (T1/2) in the human body", "setting": "[4]", "result": "about 15 hours"}, {"measurement": "fraction of modafinil eliminated by the liver", "setting": "[4]; ingestion of PROVIGIL tablets, humans", "result": "≤ 90", "unit": "%"}]}, {"smiles": "NC(=O)C[S@+]([O-])C(c1ccccc1)c1ccccc1", "note": "[d-modafinil, (d)-(+)-modafinil]", "values": [{"measurement": "effect on wakefulness (subject's blinded report)", "setting": "[1]; 100 mg sublingual at 11:15 p.m., one subject", "result": "active"}, {"measurement": "wakefulness effect compared with 200 mg racemic modafinil", "setting": "[1]; 100 mg sublingual, same subject", "result": "neither test substance kept them awake as strongly or as long as the 200 mg racemic modafinil"}, {"measurement": "pharmacological activity compared with the modafinil racemic compound", "setting": "[5]", "result": "same pharmacological activity"}, {"measurement": "subject's reported observations on sleep and alertness", "setting": "[6]", "result": "took longer than usual to fall asleep; also recorded: significantly more alert"}, {"measurement": "Visual Analog Scale (0 to 3), difficulty to fall asleep", "setting": "[6]; Subject 1, Subject 2", "result": "1 and 2"}, {"measurement": "amount in the circulation compared with l-modafinil", "setting": "[4]; after use of racemic modafinil", "result": "three times less"}]}, {"smiles": "NC(=O)C[S@@+]([O-])C(c1ccccc1)c1ccccc1", "note": "[l-modafinil]", "values": [{"measurement": "pharmacological activity compared with the modafinil racemic compound", "setting": "[5]", "result": "same pharmacological activity"}, {"measurement": "half-life (T1/2) in the human body", "setting": "[4]", "result": "10 to 14", "unit": "h"}, {"measurement": "half-life (T1/2) in the human body", "setting": "[4]; listed as 1-modafinil", "result": "13 to 16", "unit": "h"}]}]}
